Data from patent US10538555B2, “Macrocyclic inhibitors of the PD-1/PD-L1 and CD80(B7-1)/PD-L1 protein/protein interactions” (BRISTOL-MYERS SQUIBB COMPANY, priority 2014, dated 2020).
pIC50: −log10 of the molar value. Read-outs that look alike come from different tables or passages of the source. Where a SMILES comes first, the peptide text is derived from it. Bridges are numbered along the chain shown (N, C = ends). [ ]: non-standard residue; d: D form. ξ: configuration not given here. Phe(3,4,5-F3) = N[C@@H](Cc1cc(F)c(F)c(F)c1)C(=O)O; d(cisHyp) = O=C(O)[C@H]1C[C@@H](O)CN1; Bta = N[C@@H](Cc1csc2ccccc12)C(=O)O; Hyp = O=C(O)[C@@H]1C[C@@H](O)CN1; NMeF = CN[C@@H](Cc1ccccc1)C(=O)O; dHyp = O=C(O)[C@H]1C[C@H](O)CN1; NMeNle = CCCC[C@H](NC)C(=O)O; NMeA = CN[C@@H](C)C(=O)O; Orn = NCCC[C@H](N)C(=O)O; ξC = NC(CS)C(=O)O

Biological target: T1, Human PD-L1/PD-1 (Homo sapiens, UniProt Q9NZQ7)
T1 construct: TVMV protease cleavage site (C); made in house; host or cells: HEK293T cells
Test: HTRF Human PD-L1/PD-1 binding assay (PD-1-Ig/PD-L1-His)
Conditions: PD-L1-His 10 nM, PD-1-Ig 20 nM
Method in brief: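 Competition of macrocyclic peptides for PD-1/PD-L1 binding measured by HTRF in dPBS containing 0.1% BSA and 0.05% Tween-20. Compound and PD-L1-His (10 nM final) incubated 15 min before PD-1-Ig (20 nM final) and a further 15 min.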

[1] = class symbol, read-out: HTRF Human PD-L1/PD-1 Binding Assay IC50 Range
[2] = read-out: HTRF Human PD-L1/PD-1 Binding Assay IC50

T1 sequence (Q9NZQ7 with tags, fused parts or gaps): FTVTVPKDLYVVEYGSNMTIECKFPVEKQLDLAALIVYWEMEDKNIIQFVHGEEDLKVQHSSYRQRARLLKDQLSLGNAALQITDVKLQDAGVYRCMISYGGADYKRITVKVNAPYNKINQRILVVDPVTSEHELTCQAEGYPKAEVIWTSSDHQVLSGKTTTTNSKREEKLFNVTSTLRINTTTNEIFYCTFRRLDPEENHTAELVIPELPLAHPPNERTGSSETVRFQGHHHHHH

| SMILES | pIC50 [1] | pIC50 [2] |
| --- | --- | --- |
| CCCC[C@H]1C(=O)N2C[C@H](O)C[C@@H]2C(=O)N[C@@H](CC(=O)O)C(=O)N[C@@H](C(C)C)C(=O)N(C)[C@@H](Cc2ccccc2)C(=O)N[C@@H](CC(N)=O)C(=O)N2C[C@H](O)C[C@@H]2C(=O)N[C@@H](Cc2c[nH]c3ccccc23)C(=O)N[C@@H](Cc2ccc(O)cc2)C(=O)N[C@@H](CCC(=O)O)C(=O)N[C@H](C(=O)NCC(N)=O)CSCC(=O)N[C@@H](Cc2cc(F)c(F)c(F)c2)C(=O)N(C)[C@@H](Cc2ccccc2)C(=O)N1C [Example 9366] ({CH2CO}-[Phe(3,4,5-F3)][NMeF][NMeNle][d(cisHyp)]DV[NMeF]N[d(cisHyp)]WYECG-NH2; thioether N-13) | 7.00 to 8.00 |  |
| CCCC[C@H]1C(=O)N2C[C@H](O)C[C@@H]2C(=O)N[C@@H](CC(=O)O)C(=O)N[C@@H](C(C)C)C(=O)N(C)[C@@H](Cc2ccccc2)C(=O)N[C@@H](Cc2ccc(O)cc2)C(=O)N2C[C@H](O)C[C@@H]2C(=O)N[C@@H](Cc2c[nH]c3ccccc23)C(=O)N[C@@H](Cc2ccc(O)cc2)C(=O)N[C@@H](CC(C)C)C(=O)N[C@H](C(=O)NCC(N)=O)CSCC(=O)N[C@@H](Cc2cc(F)c(F)c(F)c2)C(=O)N(C)[C@@H](Cc2ccccc2)C(=O)N1C [Example 9367] ({CH2CO}-[Phe(3,4,5-F3)][NMeF][NMeNle][d(cisHyp)]DV[NMeF]Y[d(cisHyp)]WYLCG-NH2; thioether N-13) | 7.00 to 8.00 |  |
| CCCC[C@H]1C(=O)N2C[C@@H](O)C[C@@H]2C(=O)N[C@@H](CC(=O)O)C(=O)N[C@@H](C(C)C)C(=O)N(C)[C@@H](Cc2ccccc2)C(=O)N[C@@H](Cc2ccc(O)cc2)C(=O)N2C[C@H](O)C[C@@H]2C(=O)N[C@@H](Cc2c[nH]c3ccccc23)C(=O)N[C@@H](Cc2ccc(O)cc2)C(=O)N[C@@H](CCCN)C(=O)N[C@H](C(=O)NCC(N)=O)CSCC(=O)N[C@@H](Cc2cc(F)c(F)c(F)c2)C(=O)N(C)[C@@H](Cc2ccccc2)C(=O)N1C [Example 9368] ({CH2CO}-[Phe(3,4,5-F3)][NMeF][NMeNle][dHyp]DV[NMeF]Y[d(cisHyp)]WY[Orn]CG-NH2; thioether N-13) | 8.00 to 9.00 |  |
| CCCC[C@H]1C(=O)N2C[C@@H](O)C[C@@H]2C(=O)N[C@@H](CC(=O)O)C(=O)N[C@@H](C(C)C)C(=O)N(C)[C@@H](Cc2ccccc2)C(=O)N[C@@H](CCC(=O)O)C(=O)N2C[C@H](O)C[C@@H]2C(=O)N[C@@H](Cc2c[nH]c3ccccc23)C(=O)N[C@@H](Cc2ccc(O)cc2)C(=O)N[C@@H](CC(C)C)C(=O)N[C@H](C(=O)NCC(N)=O)CSCC(=O)N[C@@H](Cc2cc(F)c(F)c(F)c2)C(=O)N(C)[C@@H](Cc2ccccc2)C(=O)N1C [Example 9369] ({CH2CO}-[Phe(3,4,5-F3)][NMeF][NMeNle][dHyp]DV[NMeF]E[d(cisHyp)]WYLCG-NH2; thioether N-13) | 8.00 to 9.00 |  |
| CCCC[C@H]1C(=O)N2C[C@@H](O)C[C@@H]2C(=O)N[C@@H](CC(=O)O)C(=O)N[C@@H](C(C)C)C(=O)N(C)[C@@H](Cc2ccccc2)C(=O)N[C@@H](CCC(=O)O)C(=O)N2C[C@H](O)C[C@@H]2C(=O)N[C@@H](Cc2c[nH]c3ccccc23)C(=O)N[C@@H](Cc2ccc(O)cc2)C(=O)N[C@@H](CCCN)C(=O)N[C@H](C(=O)NCC(N)=O)CSCC(=O)N[C@@H](Cc2cc(F)c(F)c(F)c2)C(=O)N(C)[C@@H](Cc2ccccc2)C(=O)N1C [Example 9370] ({CH2CO}-[Phe(3,4,5-F3)][NMeF][NMeNle][dHyp]DV[NMeF]E[d(cisHyp)]WY[Orn]CG-NH2; thioether N-13) |  | 8.24 |
| CCCC[C@H]1C(=O)N2C[C@H](O)C[C@@H]2C(=O)N[C@@H](CC(=O)O)C(=O)N[C@@H](C(C)C)C(=O)N(C)[C@@H](Cc2ccccc2)C(=O)N[C@@H](Cc2ccc(O)cc2)C(=O)N2C[C@@H](O)C[C@@H]2C(=O)N[C@@H](Cc2c[nH]c3ccccc23)C(=O)N[C@@H](Cc2ccc(O)cc2)C(=O)N[C@@H](CC(C)C)C(=O)N[C@H](C(=O)NCC(N)=O)CSCC(=O)N[C@@H](Cc2cc(F)c(F)c(F)c2)C(=O)N(C)[C@@H](Cc2ccccc2)C(=O)N1C [Example 9371] ({CH2CO}-[Phe(3,4,5-F3)][NMeF][NMeNle][d(cisHyp)]DV[NMeF]Y[dHyp]WYLCG-NH2; thioether N-13) | 8.00 to 9.00 |  |
| CCCC[C@H]1C(=O)N2C[C@H](O)C[C@@H]2C(=O)N[C@@H](CC(=O)O)C(=O)N[C@@H](C(C)C)C(=O)N(C)[C@@H](Cc2ccccc2)C(=O)N[C@@H](Cc2ccc(O)cc2)C(=O)N2C[C@@H](O)C[C@@H]2C(=O)N[C@@H](Cc2c[nH]c3ccccc23)C(=O)N[C@@H](Cc2ccc(O)cc2)C(=O)N[C@@H](CCCN)C(=O)N[C@H](C(=O)NCC(N)=O)CSCC(=O)N[C@@H](Cc2cc(F)c(F)c(F)c2)C(=O)N(C)[C@@H](Cc2ccccc2)C(=O)N1C [Example 9372] ({CH2CO}-[Phe(3,4,5-F3)][NMeF][NMeNle][d(cisHyp)]DV[NMeF]Y[dHyp]WY[Orn]CG-NH2; thioether N-13) | 8.00 to 9.00 |  |
| CCCC[C@H]1C(=O)N2C[C@H](O)C[C@@H]2C(=O)N[C@@H](CC(=O)O)C(=O)N[C@@H](C(C)C)C(=O)N(C)[C@@H](Cc2ccccc2)C(=O)N[C@@H](CCC(=O)O)C(=O)N2C[C@@H](O)C[C@@H]2C(=O)N[C@@H](Cc2c[nH]c3ccccc23)C(=O)N[C@@H](Cc2ccc(O)cc2)C(=O)N[C@@H](CC(C)C)C(=O)N[C@H](C(=O)NCC(N)=O)CSCC(=O)N[C@@H](Cc2cc(F)c(F)c(F)c2)C(=O)N(C)[C@@H](Cc2ccccc2)C(=O)N1C [Example 9373] ({CH2CO}-[Phe(3,4,5-F3)][NMeF][NMeNle][d(cisHyp)]DV[NMeF]E[dHyp]WYLCG-NH2; thioether N-13) | 7.00 to 8.00 |  |
| CCCC[C@H]1C(=O)N2C[C@H](O)C[C@@H]2C(=O)N[C@@H](CC(=O)O)C(=O)N[C@@H](C(C)C)C(=O)N(C)[C@@H](Cc2ccccc2)C(=O)N[C@@H](CCC(=O)O)C(=O)N2C[C@@H](O)C[C@@H]2C(=O)N[C@@H](Cc2c[nH]c3ccccc23)C(=O)N[C@@H](Cc2ccc(O)cc2)C(=O)N[C@@H](CCCN)C(=O)N[C@H](C(=O)NCC(N)=O)CSCC(=O)N[C@@H](Cc2cc(F)c(F)c(F)c2)C(=O)N(C)[C@@H](Cc2ccccc2)C(=O)N1C [Example 9374] ({CH2CO}-[Phe(3,4,5-F3)][NMeF][NMeNle][d(cisHyp)]DV[NMeF]E[dHyp]WY[Orn]CG-NH2; thioether N-13) | 7.00 to 8.00 |  |
| CCCC[C@H]1C(=O)N(C)[C@@H](CCCC)C(=O)N[C@@H](CCCNC(=N)N)C(=O)NC(C(=O)NCC(N)=O)CSCC(=O)N[C@@H](Cc2ccc(O)cc2)C(=O)N(C)[C@@H](C)C(=O)N[C@@H](CC(N)=O)C(=O)N2CCC[C@H]2C(=O)N[C@@H](CC(N)=O)C(=O)N[C@@H](CC(N)=O)C(=O)N2C[C@H](O)C[C@H]2C(=O)N[C@@H](Cc2c[nH]c3ccccc23)C(=O)N[C@@H](CO)C(=O)N[C@@H](Cc2csc3ccccc23)C(=O)N1C (stereo partly drawn) [Example 10012] ({CH2CO}-Y[NMeA]NPNN[Hyp]WS[Bta][NMeNle][NMeNle]R[ξC]G-NH2; thioether N-14) | 7.00 to 8.00 |  |
| CCCC[C@H]1C(=O)N(C)[C@@H](CCCC)C(=O)N[C@@H](CCCNC(=N)N)C(=O)NC(C(=O)NCC(N)=O)CSCC(=O)N[C@@H](Cc2ccc(O)cc2)C(=O)N(C)[C@@H](C)C(=O)N[C@@H](CC(N)=O)C(=O)N2CCC[C@H]2C(=O)N[C@@H](CC(N)=O)C(=O)N[C@@H](CC(N)=O)C(=O)N2CCC[C@H]2C(=O)N[C@@H](Cc2c[nH]c3ccccc23)C(=O)N[C@@H](CO)C(=O)N[C@@H](Cc2c[nH]c3ccccc23)C(=O)N1C (stereo partly drawn) [Example 10013] ({CH2CO}-Y[NMeA]NPNNPWSW[NMeNle][NMeNle]R[ξC]G-NH2; thioether N-14) |  | 7.20 |
| CCCC[C@H]1C(=O)N(C)[C@@H](CCCC)C(=O)N[C@@H](CCCNC(=N)N)C(=O)NC(C(=O)NCC(N)=O)CSCC(=O)N[C@@H](Cc2ccc(O)cc2)C(=O)N(C)[C@@H](C)C(=O)N[C@@H](CC(N)=O)C(=O)N2CCC[C@H]2C(=O)N[C@@H](CC(N)=O)C(=O)N[C@@H](CC(N)=O)C(=O)N2C[C@H](O)C[C@H]2C(=O)N[C@@H](Cc2c[nH]c3ccccc23)C(=O)N[C@@H](CO)C(=O)N[C@@H](Cc2c[nH]c3ccccc23)C(=O)N1C (stereo partly drawn) [Example 10014] ({CH2CO}-Y[NMeA]NPNN[Hyp]WSW[NMeNle][NMeNle]R[ξC]G-NH2; thioether N-14) | 7.00 to 8.00 |  |
| CCCC[C@H]1C(=O)N(C)[C@@H](CCCC)C(=O)N[C@@H](CCCNC(=N)N)C(=O)NC(C(=O)NCC(N)=O)CSCC(=O)N[C@@H](Cc2ccc(O)cc2)C(=O)N(C)[C@@H](C)C(=O)N[C@@H](CC(N)=O)C(=O)N2CCC[C@H]2C(=O)N[C@@H](CO)C(=O)N[C@@H](CO)C(=O)N2CCC[C@H]2C(=O)N[C@@H](Cc2c[nH]c3ccccc23)C(=O)N[C@@H](CO)C(=O)N[C@@H](Cc2csc3ccccc23)C(=O)N1C (stereo partly drawn) [Example 10015] ({CH2CO}-Y[NMeA]NPSSPWS[Bta][NMeNle][NMeNle]R[ξC]G-NH2; thioether N-14) | 8.00 to 9.00 |  |
| CCCC[C@H]1C(=O)N(C)[C@@H](CCCC)C(=O)N[C@@H](CCCNC(=N)N)C(=O)NC(C(=O)NCC(N)=O)CSCC(=O)N[C@@H](Cc2ccc(O)cc2)C(=O)N(C)[C@@H](C)C(=O)N[C@@H](CC(N)=O)C(=O)N2CCC[C@H]2C(=O)N[C@@H](CO)C(=O)N[C@@H](CO)C(=O)N2C[C@H](O)C[C@H]2C(=O)N[C@@H](Cc2c[nH]c3ccccc23)C(=O)N[C@@H](CO)C(=O)N[C@@H](Cc2csc3ccccc23)C(=O)N1C (stereo partly drawn) [Example 10016] ({CH2CO}-Y[NMeA]NPSS[Hyp]WS[Bta][NMeNle][NMeNle]R[ξC]G-NH2; thioether N-14) | 7.00 to 8.00 |  |
| CCCC[C@H]1C(=O)N(C)[C@@H](CCCC)C(=O)N[C@@H](CCCNC(=N)N)C(=O)NC(C(=O)NCC(N)=O)CSCC(=O)N[C@@H](Cc2ccc(O)cc2)C(=O)N(C)[C@@H](C)C(=O)N[C@@H](CC(N)=O)C(=O)N2CCC[C@H]2C(=O)N[C@@H](CO)C(=O)N[C@@H](CO)C(=O)N2CCC[C@H]2C(=O)N[C@@H](Cc2c[nH]c3ccccc23)C(=O)N[C@@H](CO)C(=O)N[C@@H](Cc2c[nH]c3ccccc23)C(=O)N1C (stereo partly drawn) [Example 10017] ({CH2CO}-Y[NMeA]NPSSPWSW[NMeNle][NMeNle]R[ξC]G-NH2; thioether N-14) | 7.00 to 8.00 |  |
